Measured values reported in patent publication US20100061928A1, “LABELLED ANALOGUES OF HALOBENZAMIDES AS RADIOPHARMACEUTICALS” (Institut National De La Sante et De La Recherche Medicale …, priority 2006, published 2010).
Where a name gives a salt, the structure may show the parent alone.

Key:
[1] = Elimination of the molecules: cumulative urinary and faecal excretion 0-72 hours; type: in vivo, mouse; conditions: for Faecal elimination 0-72 hours (Faeces) / Urinary and faecal elimination 0-72 hours (Total) / Urinary elimination 0-72 hours (Urine): cumulative excretion 0-72 hours; for Faecal elimination 0-72 hours (Faeces) / Urinary elimination 0-72 hours (Urine): mice in metabolic cages; for Urinary and faecal elimination 0-72 hours (Total): urine + faeces
tumour = assay: Dosimetry with regard to the tumour (MIRD programme, extrapolated to ^131I)
[2] = tested on: grafted B16 F0 murine melanoma tumour; assay: Biodistribution of the ^125I-labelled molecules in the melanoma-bearing mouse (autoradiography of whole-body sections); conditions: for Biodistribution, Mean, B 16 / Biodistribution, radioactivity concentration in B 16, Mean: B 16 tumour
Procedure: The distribution of the radioactivity of the various compounds in the body (tumour and other organs) is quantified using an Ambis 4000 image analyzer on sections of whole animals. […] All the in vivo experimentation is carried out within the context defined by French legislation relating to animal experimentation.
The B16 F0 melanoma cells are provided by the ATCC and cultured in monolayers in culture medium (MEM, Invitrogen) supplemented with 10% foetal calf serum and antibiotics. The cultures are maintained by subculturing after trypsinization. The cells of the first passages are frozen and stored in liquid nitrogen. For the transplanting, the cells in culture at confluence are detached by trypsinization and washed with phosphate buffer (PBS).
The distribution of the radioactivity present in the sections is analyzed using an AMBIS 4000 analyzer (Scanalytics, CSPI, San Diego, Calif.), which is a proportional counter with a multiwire chamber validated and calibrated beforehand for the monitoring of iodine in the mouse. The measurements require acquisition times of 1000 minutes. […] The value of radioactivity per unit of surface area (cpm/mm^2) is converted to concentration (kBq/g) and expressed as percentage of the injected dose/g of tissue (% ID/g).

[3] = 1 H after i.v., 125I-labelled, dose = 1.09 MBq
[4] = 3 H after i.v., 125I-labelled, dose = 1.09 MBq
[5] = 24 H after i.v., 125I-labelled, dose = 1.09 MBq
[6] = 72 H after i.v., 125I-labelled, dose = 1.09 MBq

CCN(CC)CCNC(=O)c1ccc(I)cc1 [BZA, N-(2-diethylaminoethyl)-4-iodobenzamide, reference compound]
Faecal elimination 0-72 hours (Faeces) [1]: 4.8%
Urinary and faecal elimination 0-72 hours (Total) [1]: 87.9%
Urinary elimination 0-72 hours (Urine) [1]: 83.1%
elimination route (in words) ([1]; urinary versus faecal, 0-72 hours): predominantly in the urine
Effective period (tumour; extrapolated to 131I labelling): 17.8 h
Biological period (tumour; from biodistribution data): 19.6 hours

CCN(CC)CCNC(=O)c1cccc2cc3cc(I)ccc3nc12 [compound 111, N-(2-diethylaminoethyl)-7-iodoacridine-4-carboxamide dihydrochloride]
Faecal elimination 0-72 hours (Faeces) [1]: 23.2%
Urinary and faecal elimination 0-72 hours (Total) [1]: 31.7%
Urinary elimination 0-72 hours (Urine) [1]: 8.5%
Biodistribution, Mean, B 16 ([2]; 1 H): 4.78
Biodistribution, Mean, B 16 ([2]; 3 H): 3.98
Biodistribution, Mean, B 16 ([2]; 6 H): 4.57
Biodistribution, Mean, B 16 ([2]; 24 H): 2.77
Biodistribution, Mean, B 16 ([2]; 72 H): 1.67
Biodistribution, Mean, GB ([2]; 1 H): 43.71
Biodistribution, Mean, GB ([2]; 6 H): 12.79
Biodistribution, Mean, Ic ([2]; 1 H): 23.92
Biodistribution, Mean, Ic ([2]; 3 H): 30.20
Biodistribution, Mean, Ic ([2]; 6 H): 28.54
Biodistribution, Mean, Ic ([2]; 24 H): 1.83
Biodistribution, Mean, Ic ([2]; 72 H): 0.75
Biodistribution, Mean, Sc ([2]; 1 H): 10.16
Biodistribution, Mean, Sc ([2]; 3 H): 9.56
Biodistribution, Mean, Sc ([2]; 6 H): 6.06
Biodistribution, Mean, Sc ([2]; 24 H): 0.73
Biodistribution, Mean, blood ([2]; 1 H): 0.75
Biodistribution, Mean, blood ([2]; 3 H): 0.54
Biodistribution, Mean, blood ([2]; 6 H): 0.42
Biodistribution, Mean, brain ([2]; 1 H): 0.28
Biodistribution, Mean, brain ([2]; 3 H): 0.27
Biodistribution, Mean, brain ([2]; 6 H): 0.11
Biodistribution, Mean, kidney ([2]; 1 H): 3.07
Biodistribution, Mean, kidney ([2]; 3 H): 1.27
Biodistribution, Mean, kidney ([2]; 6 H): 0.77
Biodistribution, Mean, liver ([2]; 1 H): 5.38
Biodistribution, Mean, liver ([2]; 3 H): 3.62
Biodistribution, Mean, liver ([2]; 6 H): 2.16
Biodistribution, Mean, liver ([2]; 24 H): 0.48
Biodistribution, Mean, liver ([2]; 72 H): 0.42
Biodistribution, Mean, lungs ([2]; 1 H): 1.70
Biodistribution, Mean, lungs ([2]; 3 H): 0.88
Biodistribution, Mean, lungs ([2]; 6 H): 0.59
Biodistribution, Mean, muscle ([2]; muscle, 1 H): 0.30
Biodistribution, Mean, pancreas ([2]; 1 H): 1.38
Biodistribution, Mean, pancreas ([2]; 3 H): 0.70
Biodistribution, Mean, spleen ([2]; 1 H): 3.11
Biodistribution, Mean, spleen ([2]; 3 H): 1.29
Biodistribution, Mean, spleen ([2]; 6 H): 0.87
Biodistribution, Mean, thyroid ([2]; 1 H): 21.00
Biodistribution, Mean, thyroid ([2]; 24 H): 40.73
Biodistribution, Mean, thyroid ([2]; 72 H): 38.07
Biodistribution, Mean, uvea ([2]; 1 H): 3.83
Biodistribution, Mean, uvea ([2]; 3 H): 4.69
Biodistribution, Mean, uvea ([2]; 6 H): 3.51
Biodistribution, Mean, uvea ([2]; 24 H): 3.45
Biodistribution, Mean, uvea ([2]; 72 H): 1.96

CCCN(CCC)CCCCNC(=O)c1cnc2cc(I)ccc2n1 [compound 144, N-(4-dipropylaminobutyl)-6-iodoquinoxaline-2-carboxamide dihydrochloride]
Faecal elimination 0-72 hours (Faeces) [1]: 34.8%
Urinary and faecal elimination 0-72 hours (Total) [1]: 80.5%
Urinary elimination 0-72 hours (Urine) [1]: 45.7%
Biodistribution, radioactivity concentration in B 16, Mean [2, 3]: 14.69 % ID/g
Biodistribution, radioactivity concentration in B 16, Mean [2, 4]: 44.92 % ID/g
Biodistribution, radioactivity concentration in B 16, Mean [2, 5]: 37.46 % ID/g
Biodistribution, radioactivity concentration in B 16, Mean [2, 6]: 24.02 % ID/g
Biodistribution, radioactivity concentration in Ic, Mean [2, 3]: 27.28 % ID/g
Biodistribution, radioactivity concentration in Ic, Mean [2, 4]: 29.12 % ID/g
Biodistribution, radioactivity concentration in Sc, Mean [2, 3]: 24.11 % ID/g
Biodistribution, radioactivity concentration in Sc, Mean [2, 4]: 34.86 % ID/g
tumour concentration, times higher than with BZA ([2]; at 72 hours (FIG. 1B)): 31 times
Biodistribution, radioactivity concentration in blood, Mean [2, 3]: 1.85 % ID/g
Biodistribution, radioactivity concentration in blood, Mean [2, 4]: 1.61 % ID/g
Biodistribution, radioactivity concentration in brain, Mean [2, 3]: 0.75 % ID/g
Biodistribution, radioactivity concentration in brain, Mean [2, 4]: 0.46 % ID/g
tumour concentration, % of the injected dose per gram of tumour ([2]; from the first hour): 14.7 % ID/g
Biodistribution, radioactivity concentration in kidney, Mean [2, 3]: 24.42 % ID/g
Biodistribution, radioactivity concentration in kidney, Mean [2, 4]: 17.73 % ID/g
Biodistribution, radioactivity concentration in liver, Mean [2, 3]: 12.84 % ID/g
Biodistribution, radioactivity concentration in liver, Mean [2, 4]: 7.84 % ID/g
Biodistribution, radioactivity concentration in lungs, Mean [2, 3]: 5.81 % ID/g
Biodistribution, radioactivity concentration in lungs, Mean [2, 4]: 4.91 % ID/g
Biodistribution, radioactivity concentration in muscle, Mean ([2]; muscle, 3 H after i.v., 125I-labelled, dose = 1.09 MBq): 0.79 % ID/g
Biodistribution, radioactivity concentration in pancreas, Mean [2, 3]: 23.88 % ID/g
Biodistribution, radioactivity concentration in pancreas, Mean [2, 4]: 13.06 % ID/g
Biodistribution, radioactivity concentration in spleen, Mean [2, 3]: 18.70 % ID/g
Biodistribution, radioactivity concentration in spleen, Mean [2, 4]: 6.08 % ID/g
Biodistribution, radioactivity concentration in thyroid, Mean [2, 4]: 60.78 % ID/g
Biodistribution, radioactivity concentration in thyroid, Mean [2, 5]: 44.74 % ID/g
Biodistribution, radioactivity concentration in uvea, Mean [2, 3]: 28.75 % ID/g
Biodistribution, radioactivity concentration in uvea, Mean [2, 4]: 41.75 % ID/g
Biodistribution, radioactivity concentration in uvea, Mean [2, 5]: 32.62 % ID/g
Biodistribution, radioactivity concentration in uvea, Mean [2, 6]: 23.28 % ID/g
